Measured values taken from patent US9233067B2, “Silk particles for controlled and sustained delivery of compounds” (Amsilk GmbH, priority 2009, dated 2016).
Entries after “also recorded” stand apart in the source; their conditions may differ. Structures can show the parent of a compound that is named as a salt.

What was measured:
[1] = Calculated apparent distribution coefficient (log D); conditions: pH 7; calculated from log P and pKa
Description: Further, the distribution between a hydrophobic and a hydrophilic phase of two different species of a specific drug, i.e. the native and the protonated form, can be described by its apparent distribution coefficient (log D), which can be calculated with equations (3) and (4) respectively. for acids: log D=log P−log(1+10^pH-pKa) (3) for bases: log D=log P−log(1+10^pKa-pH) (4)

[2] = Properties of small molecular weight model drugs (Table 1); assay type: physicochemical; conditions: for Predominant charge at pH7: pH 7, aqueous media
Description: All drugs were dissolved in water at a concentration of 0.21 μmol/ml. Drug substances and their featured properties are depicted in Table 1. The main selection criteria were solubility in aqueous media (expressed by the octanol/water partition coefficient (log P)), the acidic dissociation constant (pKa for protonated bases (BH+) or for acids (HA)) and the resulting net-charge in aqueous media (predominant or permanent charge).

[3] = cited from earlier work; for log P: octanol/water, individual unprotonated forms; for Dissociation constant of BH^+(pKa): protonated base
[4] = In vitro release from drug loaded eADF4(C16) particles; assay type: physicochemical; conditions: power law fit
Description: Drug loaded eADF4(C16) particles were washed with distilled water and suspended in 1 ml PBS (pH 7.4) before incubation at 37° C. with constant shaking. Each vial contained 2 mg of drug loaded particles containing […] spider silk protein. The solvent was periodically removed from each sample and replaced with fresh PBS (pH 7.4). The drug content in the medium was then analyzed using UV-Vis-spectrometry. The percentage of cumulative model drug release (% w/w) was investigated as a function of incubation time. Each experiment was performed in triplicate. To study the effect of different pH values on the release behaviour of drug loaded eADF4(C16) particles, 1 mg drug loaded silk particles were incubated in 1.0 ml PBS at 5 different pH values (pH 2, 4, 6, 7.4 and 8.8) for 5 days. The solvent was withdrawn daily and the particles were redispersed in fresh media. Supernatants of drawn samples were analyzed for drug content determination with UV-Vis-spectrometry.
[formula] where Mt/M∞ is the fractional amount of the drug released at time t, k is a characteristic constant of the system, and exponent n is related to the geometrical shape of the formulation and is indicative of the mechanism of drug release. The semi-empirical power law can be seen as a generalization of two independent mechanisms of drug transport, Fickian diffusion and Case II transport, reflecting the influence of polymer relaxation on molecules' movement in the matrix. For spherical systems the limiting value of n, when pure Fickian diffusion or pure Case II transport is operating, were determined to be equal to 0.43 and 0.85, respectively. When n is between 0.43 and 0.85, a superposition of both transport processes occurs which is known as anomalous transport. In order to obtain a linear fit for the drug release data, equation (5) was modified leading to equation (6),
[formula] where n can be calculated from the slope of the log-log plot of release Mt/M∞ versus time t by linear fitting (FIG. 4d). Therefrom, three time intervals with different dominating release mechanisms could be identified excluding the initial burst region (<24 h). To distinguish between different time intervals, the criterion that the coefficient r2 had to be above 0.99 for the individual linear fits was employed. For validation of the determined release parameters, the experimental release data were compared with theoretical data obtained by the semi-empirical power law employing the determined values for k and n. A very good agreement from post-initial burst stage (>24 hours) up to 100% release was obtained (FIG. 4 a). Since only release data after 24 hours were considered for calculation of release parameters (k and n), the initial burst is underestimated by theoretical data (FIG. 4 b).

[5] = pH of 7.0; cited from earlier work
[6] = Particle size of lysozyme loaded C16 spider silk particles (dynamic light scattering); assay type: physicochemical; conditions: particles loaded with approximately 10% [w/w] lysozyme
Description: The loading procedure as applied in example 6 was modulated and implemented as follows: A stock dispersion of spider silk particles was centrifuged and redispersed in the desired buffer media before loading. A second stock solution comprising lysozyme was prepared by dissolving lyophilized lysozyme in an identical buffer solution. […] After 30 minutes of incubation at room temperature under gentle agitation, 20 μl of the resulting particle suspension were used for dynamic light scattering measurements. Simultaneously, samples were centrifuged and the supernatant was analyzed for residual protein content using the Micro BCA Protein Assay Kit (Thermo Scientific). Encapsulation efficiencies and loading were determined according to example 6 by using equation (1) and (2), respectively.

Zeta potential analysis = assay type: physicochemical; conditions: lysozyme loading up to 30%; pH 7.0/30 mM
Description: In order to elucidate and characterize the loading mechanism of eADF4(C16) particles with model drugs, zeta potential measurements were conducted as a function of amount of model drug added. The zeta potential was determined using a Nanoseries Malvern Zetasizer (Malvern, Worcestershire, UK). Automatic titration was conducted with a Malvern Multipurpose Titrator MPT-2. Experiments were performed in distilled water (pH 7) at 25° C. Each measurement was performed in triplicate.

## CN[C@@H](C)[C@H](O)c1ccccc1 [Ephedrine*HCl, Ephedrine]
[1]
  log D: −1.321
[2]
  Permanently charged: no
  Predominant charge at pH7: positive
[3]
  log P: 1.30

## CCOc1ccc2nc3cc(N)ccc3c(N)c2c1 [Ethacridine lactate]
[1]
  log D: 2.899
[2]
  Permanently charged: no
  Predominant charge at pH7: positive
[3]
  log P: 2.50
  Dissociation constant of BH^+(pKa): 11.00
[4]; time 0-13 d
  k (characteristic constant): 1.25
  n (release exponent): 00.6754
[4]; time 0-13 d, listed as ethacridine lactate
  n (release exponent): 0.6754
[4]; time 14-20 d
  k (characteristic constant): 3.18
  n (release exponent): 0.5083
[4]; time 14-20 d, listed as ethacridine lactate
  n (release exponent): 0.51
[4]; time >20 d
  k (characteristic constant): 14.4
  n (release exponent): 0.2641

## COc1ccc(Cc2nccc3cc(OC)c(OC)cc23)cc1OC [Papaverine*HCl, Papaverine]
[1]
  log D: 2.395
[2]
  Permanently charged: no
  Predominant charge at pH7: positive
[3]
  log P: 3.50
  Dissociation constant of BH^+(pKa): 8.07

## O=S1(=O)OC(c2ccc(O)cc2)(c2ccc(O)cc2)c2ccccc21 [Phenol red]
[3]
  log P: 3.00

## CCN(CC)CCOC(=O)c1ccc(N)cc1 [Procaine*HCl, Procaine]
[1]
  log D: 0.396
[2]
  Permanently charged: no
  Predominant charge at pH7: positive
[3]
  log P: 2.40
  Dissociation constant of BH^+(pKa): 8.05

## CC(C)NCC(O)COc1cccc2ccccc12 (stereo not drawn) [Propranolol*HCl, Propranolol]
[2]
  Permanently charged: no
  Predominant charge at pH7: positive

## CCCCNc1ccc(C(=O)OCCN(C)C)cc1 [Tetracaine*HCl, Tetracaine]
[1]
  log D: 2.773
[2]
  Permanently charged: no
  Predominant charge at pH7: positive
[3]
  log P: 4.00

## Lysozyme: protein compound with an isoelectric point of 11.35 and a molecular weight of 14.3 kDa
[5]
  net charge: positive
[6]
  particle size compared to unloaded spider silk particles: no increase in size; also recorded: did not differ
Zeta potential analysis
  change in the zeta-potential of particles: did not show a significant change

## Methyl violet
[2]
  Permanently charged: yes
  Predominant charge at pH7: positive
[3]
  log P: 3.20
[4]; time 0-13 d
  k (characteristic constant): 1.17
  n (release exponent): 0.692
[4]; time 14-20 d
  k (characteristic constant): 1.92
  n (release exponent): 0.6079
[4]; time 14-20 d, listed as methyl violet
  n (release exponent): 0.61
[4]; time >20 d
  k (characteristic constant): 9.20
  n (release exponent): 0.3537

## Nerve growth factor: protein with an isoelectric point of 9.5 and a molecular weight of 13 kDa
[5]
  net charge: positively charged
